Holding throughout (assay type): functional
The test system of assay [1] is Aphis craccivora. The assay can be described thus: Insecticidal activity against Aphis craccivora (cowpea aphid) assessed as mortality at 500 mg/L.
The subject of assay [2] is Aphis craccivora. The assay can be described thus: Insecticidal activity against Aphis craccivora (cowpea aphid) assessed as mortality.
The subject of assay [3] is Nilaparvata lugens. Kind of assay: Insecticidal activity against imidacloprid-resistant Nilaparvata lugens (brown planthopper) assessed as drug concentration required to induce mortality per pest.
Assay [4] has as its system Nilaparvata lugens. The assay can be described thus: Ratio of imidacloprid LC50 to compound LC50 for imidacloprid-resistant Nilaparvata lugens (brown planthopper).
Assay [5] deals with Nilaparvata lugens. The assay can be described thus: Insecticidal activity against imidacloprid-sensitive Nilaparvata lugens (brown planthopper) assessed as drug concentration required to induce mortality per pest.

Consider `CCN1CC([N+](=O)[O-])=C2N(Cc3ccc(Cl)nc3)C[C@H]3CCC[C@H]3N2C1` (relative stereo), for which the mortality at 500 µg/mL in the assay with Aphis craccivora [1] was determined as 30%.
On the same count and under the same terms, the value for `CCN1CC([N+](=O)[O-])=C2N(CC3COCO3)CCN2C1` (centres undefined) was 0%.
Turning to `CCCN1CC([N+](=O)[O-])=C2N(Cc3ccc(Cl)nc3)C[C@H]3CCC[C@H]3N2C1` (relative stereo), the mortality at 500 µg/mL in the assay on Aphis craccivora [1] came out at 30%.
For `CC(C)N1CC([N+](=O)[O-])=C2N(Cc3ccc(Cl)nc3)C[C@H]3CCC[C@H]3N2C1` (relative stereo), the mortality at 500 µg/mL in the assay with Aphis craccivora [1] was 30%.
As for `O=[N+]([O-])/N=C1\NCCN1Cc1ccc(Cl)nc1` [IMIDACLOPRID], the LC50 was found to be 31 µM in the assay on Aphis craccivora [2] and 22.1614 ng with Nilaparvata lugens [3].
Take `O=[N+]([O-])C1=C2N(Cc3ccc(Cl)nc3)C[C@H]3CCC[C@H]3N2CN(CCO)C1` (relative stereo): the mortality at 500 µg/mL in the assay on Aphis craccivora [1] came to 30%.
Turning to `O=[N+]([O-])C1=C2N(Cc3ccc(Cl)nc3)CCN2[C@H](c2ccco2)[C@@](C2=NCCN2Cc2ccc(Cl)nc2)([N+](=O)[O-])[C@@H]1c1ccco1`, the RatioLC50 in the assay on Nilaparvata lugens [4] came to 10.
Turning to `CCCCN1CC([N+](=O)[O-])=C2N(Cc3ccc(Cl)nc3)C[C@H]3CCC[C@H]3N2C1` (relative stereo), in the assay on Aphis craccivora [1], the mortality at 500 µg/mL came out at 30%.
As for `CCCN1CC([N+](=O)[O-])=C2N(CC3COCO3)CCN2C1` (centres undefined), the mortality at 500 µg/mL with Aphis craccivora [1] came out at 0%.
With `O=[N+]([O-])C1=C2N(Cc3ccc(Cl)nc3)CCN2[C@@H]2CC[C@H]1O2`, the LC50 in the assay on Nilaparvata lugens [3] was 0.4925 ng; with Nilaparvata lugens [5] it was 0.0742 ng. In addition, the RatioLC50 in the assay on Nilaparvata lugens [4] stood at 50.
Take `O=[N+]([O-])C1=C2N(Cc3ccc(Cl)nc3)CCN2[C@H](c2ccco2)[C@@](C2=NCCN2Cc2ccc(Cl)nc2)([N+](=O)[O-])[C@H]1c1ccco1`: in the assay with Aphis craccivora [1], the mortality at 500 µg/mL is 87%.
As to `CN1CC([N+](=O)[O-])=C2N(CC3COCO3)CCN2C1` (centres undefined), in the assay with Aphis craccivora [1], the mortality at 500 µg/mL stood at 0%.
For the molecule `CC(C)N1CC([N+](=O)[O-])=C2N(CC3COCO3)CCN2C1` (centres undefined), in the assay on Aphis craccivora [1], the mortality at 500 µg/mL came out at 0%.
For `O=[N+]([O-])C1=C2N(Cc3ccc(Cl)nc3)CCN2[C@H]2CCC[C@@H]1O2`, the mortality at 500 µg/mL in the assay with Aphis craccivora [1] is 87%. Further, the LC50 with Nilaparvata lugens [3] came to 18.9795 ng; in the assay with Nilaparvata lugens [5], 4.144 ng.
Consider `O=[N+]([O-])C1=C2N(CC3COCO3)CCN2CN(CCO)C1` (centres undefined), for which the mortality at 500 µg/mL in the assay with Aphis craccivora [1] was 0%.
For the molecule `Cl.O=[N+]([O-])/C(=C\c1ccco1)C1=NCCN1Cc1ccc(Cl)nc1`, in the assay with Nilaparvata lugens [3], the LC50 is listed as 0.7312 ng. Besides, the RatioLC50 with Nilaparvata lugens [4] worked out at 30.
Consider `CCCCN1CC([N+](=O)[O-])=C2N(CC3COCO3)CCN2C1` (centres undefined), for which the mortality at 500 µg/mL in the assay with Aphis craccivora [1] came to 0%.
Still for that read-out and setting: to `CN1CC([N+](=O)[O-])=C2N(Cc3ccc(Cl)nc3)C[C@H]3CCC[C@H]3N2C1` belongs 30%.

The values above are taken from ChEMBL document CHEMBL3046491, “cis-Configuration: a new tactic/rationale for neonicotinoid molecular design” (2011).
